Measured values as given in patent US20070129330A1, “1,3-Diaza-dibenzo[e,h]azulenes for the treatment of central nervous system diseases and disorders” (Pliva-Istrazivacki Institut d.o.o., priority 2003, published 2007).

Columns and labels:
[1] = target: T1, 5-HT2A receptor (Homo sapiens, UniProt P28223); assay: radioligand binding assay for 5-HT2A receptor ([3H]-ketanserin competitive binding); conditions: human cortex or recombinant 5-HT2A receptor expressed in CHO-K1 cells; for IC50: read-out: binding affinity to 5-HT2A serotonin receptor expressed as IC50 value; for Ki: read-out: binding affinity to 5-HT2A serotonin receptor, Ki value
T1 construct: expressed in transfected cells; host or cells: CHO-K1 (alternatively human cortex tissue)
Procedure: (§1) The effect of the compounds of the present invention on the neurochemical steady state was determined by in vitro investigations such as a radionuclide-marked radioligand binding assay for 5-HT2A (Bonhaus D. W. Br. J. Pharmacol. 1995, 115:622; Saucier C. J. Neurochem. 1997, 68:1998) and 5-HT2C receptors (Wolf W.A. J. Neurochem. 1997, 69:1449), in vitro binding assay for the σ1 receptor (Thomson W. and Donn R. Arthritis Res. 2002, 4: 302-306) and by in vivo investigations in a tail suspension test (Vogel H. G. and Vogel W. H. Drug Discovery and Evaluation Pharmacological Assays, Springer 1997, 304), in amphetamine-induced hyperlocomotion in mice (Millan M. J. et al, 1998 J. Pharmacol. Exp. Ther. 287: 167-186), in a forced swim test in mice (Porsolt R. D. et al. Arch. Int. Pharmacodyn. 1977, 229:327-336), in meta-chlorophenyl piperazine (m-CPP) test on rats (Drug Dev. Res. 1989, 18:119-144), and in apomorphine, tryptamine and norepinephrine (ATN) test in rats (Arch. Int. Pharmacodyn. 1977, 227:238-253).
(§2) A small concentration of a radioligand having a great affinity for binding to a receptor was incubated with a tissue sample enriched with a certain receptor (1-5 mg of tissue) in a buffered medium (0.2-5 mL). Recombinant human HT2A and HT2C receptors were expressed in CHO-K1 or COS-7 cells and were also used for competitive binding. During incubation the radioligand bound to the receptor. When a binding balance was achieved, the receptors to which the radioligand was bound were separated from those to which said ligand was not bound, and the radioactivity of the receptor/radioligand complex was measured. The interaction of the tested compounds with receptors was tested in competitive binding experiments. Various concentrations of tested compounds were added to the incubation mixture containing a prepared tissue enriched with corresponding receptors and the radioligand. The radioligand binding was inhibited by the test compounds proportionally to the affinity of a certain compound for the receptor and to the concentration of the compound.
(§3) The radioligand used for the determination of binding to 5-HT2A receptor was [^3H]-ketanserin and the tissue used was human cortex or recombinant 5-HT2A receptor expressed in CHO-K1 cells. The radioligand used for the determination of binding to 5-HT2C receptor was [^3H]-mesulergine and the tissue used was choroid plexus or recombinant 5-HT2C receptor expressed in CHO-K1 cells.
(§4) It is anticipated that similar results will be observed for other compounds of the invention.

[2] = target: T2, 5-HT2C receptor (Homo sapiens, UniProt P28335); assay: radioligand binding assay for 5-HT2C receptor ([3H]-mesulergine competitive binding); conditions: choroid plexus or recombinant 5-HT2C receptor expressed in CHO-K1 cells; for IC50: read-out: binding affinity to 5-HT2C serotonin receptor expressed as IC50 value; for Ki: read-out: binding affinity to 5-HT2C serotonin receptor, Ki value
T2 construct: expressed in transfected cells; host or cells: CHO-K1 (alternatively choroid plexus tissue)
T2 sequence (P28335 33-458): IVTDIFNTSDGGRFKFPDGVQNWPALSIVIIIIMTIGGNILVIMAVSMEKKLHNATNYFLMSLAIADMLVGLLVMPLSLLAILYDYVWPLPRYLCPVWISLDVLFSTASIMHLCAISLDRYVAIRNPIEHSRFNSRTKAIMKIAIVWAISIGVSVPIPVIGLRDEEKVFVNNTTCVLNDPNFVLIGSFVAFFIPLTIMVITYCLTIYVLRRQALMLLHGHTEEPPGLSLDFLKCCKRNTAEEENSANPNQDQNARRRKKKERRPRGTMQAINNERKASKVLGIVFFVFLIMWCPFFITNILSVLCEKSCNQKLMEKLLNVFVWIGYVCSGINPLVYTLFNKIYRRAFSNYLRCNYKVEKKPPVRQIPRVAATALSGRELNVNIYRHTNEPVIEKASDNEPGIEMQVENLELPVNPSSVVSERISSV
Procedure: as §1, §2, §3, §4

T1 sequence (P28223 whole entry): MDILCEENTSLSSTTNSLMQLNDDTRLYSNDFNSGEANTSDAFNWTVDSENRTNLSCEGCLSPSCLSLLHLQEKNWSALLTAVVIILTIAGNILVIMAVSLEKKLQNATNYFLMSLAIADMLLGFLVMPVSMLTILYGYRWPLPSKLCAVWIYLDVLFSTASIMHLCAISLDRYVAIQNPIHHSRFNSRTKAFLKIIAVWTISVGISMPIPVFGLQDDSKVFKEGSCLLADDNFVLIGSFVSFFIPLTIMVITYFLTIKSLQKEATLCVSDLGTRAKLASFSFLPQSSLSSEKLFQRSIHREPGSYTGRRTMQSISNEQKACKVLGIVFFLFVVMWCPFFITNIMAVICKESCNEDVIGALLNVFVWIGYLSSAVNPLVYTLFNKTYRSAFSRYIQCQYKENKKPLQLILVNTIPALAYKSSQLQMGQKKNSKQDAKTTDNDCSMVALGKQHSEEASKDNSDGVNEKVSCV

| SMILES | IC50 [1] [nM] | Ki [1] [nM] | IC50 [2] [nM] | Ki [2] [nM] |
| --- | --- | --- | --- | --- |
| CN(C)CCOCc1nc2c(n1C)-c1ccccc1Sc1ccccc1-2 [dimethyl-[2-(1-methyl-1H-8-thia-1,3-diaza-dibenzo[e,h]azulen-2-ylmethoxy)-ethyl]-amine] | < 200 | < 100 | < 200 | < 100 |
| Clc1ccc2c(c1)-c1[nH]cnc1-c1ccccc1O2 [11chloro-1H-8-oxa-1,3-diaza-dibenzo[e,h]azulene] | < 200 | < 100 | < 200 | < 100 |
| CN(C)CCCOCc1nc2c([nH]1)-c1cc(Cl)ccc1Sc1ccccc1-2 [[3-(11-chloro-1H-8-thia-1,3-diaza-dibenzo[e,h]azulen-2-ylmethoxy)-propyl]-dimethyl-amine] | < 200 | < 100 | < 200 | < 100 |
| CN(C)CCCOc1ccccc1-c1nc2c([nH]1)-c1ccccc1Sc1ccccc1-2 [dimethyl-{3-[2-(1H-8-thia-1,3-diaza-dibenzo[e,h]azulen-2-yl)-phenoxy]-propyl}-amine] | < 200 | < 100 | < 200 | < 100 |
